Earlier results as cited in US6492330B1, “Antiangiogenic drugs” (National Institute of Immunology, priority 1996, dated 2002).

Columns and labels:
VIP-receptor complex = conditions: n=6; K-A is the dissociation constant of VIP-receptor complex; cited from earlier work
[1] = test system: vascular cells from explants of rat aorta; conditions: 10^−8M octreotide; cited from earlier work
[2] = test system: human umbelical vein endothelial cells (HUVEC); conditions: 10^−9M octreotide; cited from earlier work
aortic rings in fibrin = conditions: 10^−8M octreotide; cited from earlier work

Molecule | pKa value for VIP-receptor complex (VIP-receptor complex) | inhibition of proliferation compared with controls [1] [%] | reduction of mean uptake of 3H-thymidine compared with controls [2] [%] | reduction of sprouting compared with controls (aortic rings in fibrin) [%]
vasoactive intestinal polypeptide [VIP] | 8.10+/−0.10 | – | – | –
C[C@@H](O)[C@@H]1NC(=O)[C@H](CCCCN)NC(=O)[C@@H](Cc2c[nH]c3ccccc23)NC(=O)[C@H](Cc2ccccc2)NC(=O)[C@@H](NC(=O)[C@H](N)Cc2ccccc2)CSSC[C@@H](C(=O)N[C@H](CO)[C@@H](C)O)NC1=O [octreotide] | – | 32.6 | 37 | 33.2
